# Data as given in US20240216369A1, “THE USE OF A SPLICING MODULATOR FOR A TREATMENT SLOWING PROGRESSION OF HUNTINGTON'S DISEASE” (Novartis AG, priority 2019, published 2024).
# Assays:
# [1] = First-in-human proof of concept study of oral branaplam in infants with Type 1 SMA: PK and safety; assay type: in vivo
# Text: • Principle set-up of a pediatric ACAT/PBPK model in GastroPlus™ software including physico-chemical parameters, physiological parameters, and formulation factors. The ACAT model was linked to a full PBPK model in which tissue-to-plasma concentration ratios were estimated via in silico method provided by GastroPlus™ software. • Estimation of the clearance (CL) using plasma concentrations of branaplam from an open-label multi-part first-in-human proof of concept study of oral branaplam, Part 1 only. […] The branaplam doses were escalated in subsequent cohorts until MTD was determined or when PK results confirmed that the MTD could not be reached due to a potential pharmacokinetic exposure plateau at higher doses. […]
# The aim of part one of this study was to determine the safety and tolerability of ascending weekly doses and to estimate the maximum tolerated dose (MTD) of oral/enteral branaplam (see Example 3) in infants with Type 1 SMA. All patients had exactly 2 copies of the SMN2 gene, as determined e.g. by quantitative real time PCR or droplet digital PCR.
# Patients were dosed once weekly with branaplam. The branaplam doses were escalated in subsequent cohorts until MTD was determined or when PK results confirmed that the MTD could not be reached due to a potential pharmacokinetic exposure plateau at higher doses. […]
# [2] = Pediatric ACAT/PBPK model (Type 1 SMA patients); parameters: species or system human; settings: Type 1 SMA patients 33-39 months; optimized on observed data
# Text: The pharmacokinetic (PK) model in adult subjects was developed using an Advanced Compartmental And Transit (ACAT)/Physiologically Based Pharmacokinetic (PBPK) model in GastroPlus™ software, Version 9.6 (SimulationPlus, Lancaster, CA, USA).
# • Principle set-up of a pediatric ACAT/PBPK model in GastroPlus™ software including physico-chemical parameters, physiological parameters, and formulation factors. The ACAT model was linked to a full PBPK model in which tissue-to-plasma concentration ratios were estimated via in silico method provided by GastroPlus™ software. • Estimation of the clearance (CL) using plasma concentrations of branaplam from an open-label multi-part first-in-human proof of concept study of oral branaplam, Part 1 only. The aim of Part 1 of this study was to determine the safety and tolerability of ascending weekly doses and to estimate the maximum tolerated dose (MTD) of oral/enteral branaplam (formulation described in Example 3) in infants with Type 1 SMA. All patients had exactly 2 copies of the SMN2 gene. Patients were dosed once weekly with branaplam. The branaplam doses were escalated in subsequent cohorts until MTD was determined or when PK results confirmed that the MTD could not be reached due to a potential pharmacokinetic exposure plateau at higher doses. The starting dose referring to the free base was 6 mg/m^2 (equal to 0.3125 mg/kg). Subsequent doses were 12 mg/m^2, 24 mg/m^2, 48 mg/m^2 and 60 mg/m^2 (0.625 mg/kg, 1.25 mg/kg, 2.5 mg/kg and 3.125 mg/kg, respectively). 14 patients were enrolled in Part 1; 13 patients were exposed to branaplam. The duration of exposure ranged from 4-33 months, 7 patients remain in the study. Six of the 7 patients are receiving 60 mg/m^2, 1 patient is receiving 48 mg/m^2.
# Observed plasma concentrations of branaplam in 33-39 months old Type 1 SMA patients after nominal branaplam doses of 60 mg/m^2 (3.125 mg/kg, first-in-human proof of concept study with branaplam as described above) were used to build the pediatric ACAT/PBPK by means of GastroPlus™ software. […]
smiles,measurement,setting,value
"CC1(C)CC(Oc2ccc(-c3ccc(-c4cn[nH]c4)cc3O)nn2)CC(C)(C)N1 [Compound 18, 5-(1H-pyrazol-4-yl)-2-(6-((2,2,6,6-tetramethylpiperidin-4-yl)oxy)pyridazin-3-yl)phenol]",Tmax,"[1]; human, plasma, Type 1 SMA patients, oral, nominal dose range 6 to 60 mg/m^2, read-out: median time of maximum concentration (Tmax) in plasma",2.97 to 4 h
same,dose-limiting toxicity,"[1]; infants with Type 1 SMA, once weekly 6 to 60 mg/m^2, exposure 4-33 months",No dose-limiting toxicity was observed
same,Vc,[2],3.62 (Optimized value using GastroPlus ™ based on the 1/h
same,k12,[2],1.41 (Optimized value using GastroPlus ™ based on the 1/h
same,k21,[2],0.144 (Optimized value using GastroPlus ™ based on the 1/h
